One series can be described thus: Chemical stability. The format is physicochemical. To be noted: 2 μM, aqueous buffer pH 7.4.
The nature of series [1]: Microsomal stability phase II. The series is classed as in vitro ADME, human. To be noted: 5 μM, UDPGA, 1 h, 37 °C.
Another series can be described thus: Plasma protein binding. The format is in vitro ADME. To be noted: 5 μM, equilibrium dialysis 6 h, 37 °C.
A short description of another series: Plasma stability. The format is in vitro ADME. To be noted: 5 μM, 100% plasma, 1 h, 37 °C.
A short description of another series: PAMPA. To be noted: 500 μM donor, 20 h. The series is classed as in vitro ADME.
Series [2] addresses T1, His6-RORγt-LBD (Homo sapiens, UniProt P51449).
T1 sequence (P51449 265-518): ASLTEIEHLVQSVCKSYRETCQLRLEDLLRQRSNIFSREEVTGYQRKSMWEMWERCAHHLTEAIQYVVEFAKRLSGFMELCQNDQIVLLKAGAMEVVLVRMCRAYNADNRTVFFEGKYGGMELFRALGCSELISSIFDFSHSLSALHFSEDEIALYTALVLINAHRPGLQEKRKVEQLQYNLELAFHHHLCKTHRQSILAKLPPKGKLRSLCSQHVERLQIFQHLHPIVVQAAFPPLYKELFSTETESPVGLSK
The series is classed as biochemical. To be noted: for improvement in potency compared to phenyl 19: vs 19, coactivator recruitment IC50.

Series [3] has as its target T1, His6-RORγt-LBD.
Series [4] concerns the target T2, His6-RORγt-LBD (human retinoic acid receptor-related orphan receptor γt ligand binding domain, residues … (human, UniProt P51449-1 265-518)).
T2 sequence (looked up): T1 sequence (P51449 265-518)
The series can be described thus: AlphaScreen or HTRF.

Like-named read-outs stand apart in the source and are kept apart here. The star is where a group is joined. Biotin = O=C1N[C@H]2[C@H](CS[C@H]2CCCCC(=O)*)N1

`O=C(O)c1ccc(-c2nn(C(=O)c3c(Cl)cccc3C(F)(F)F)c3ccccc23)cc1` [compound 3, MRL-871, reference compound]: the “chemical stability (% remain)” value in the series “Chemical stability” came to 81.0 % remain. In addition, the “microsomal stability phase 2 (% remain)” value in series [1] is 47.1 % remain. Besides, the “plasma protein binding (% bound)” value in the series “Plasma protein binding” was 99.9 % bound. In addition, the “plasma stability (% remain)” value in the series “Plasma stability” was 100 % remain. In addition, the “PAMPA (% flux)” value in “PAMPA” is 23.7 % flux.

As to `O=C(O)c1ccc(CNC(=O)c2c(-c3c(Cl)cccc3C(F)(F)F)noc2-c2ccccc2)cc1` [compound 18, 4-[({3-[2-Chloro-6-(trifluoromethyl)phenyl]-5-phenyl-1,2-oxazol-4-yl}formamido)methyl]benzoic Acid], at His6-RORγt-LBD [2] (vs 8, TR-FRET IC50), the “increase in potency compared to the initial hit” value was determined as 6 fold.

For the molecule `O=C(O)c1ccc(NCc2c(-c3c(Cl)cccc3C(F)(F)F)noc2-c2cccc3ccccc23)cc1` [compound 26, 4-[({3-[2-Chloro-6-(trifluoromethyl)phenyl]-5-(naphthalen-1-yl)-1,2-oxazol-4-yl}methyl)amino]benzoic Acid], the “IC50 (TR-FRET coactivator recruitment)” value against His6-RORγt-LBD [2] (RORγt LBD, SRC-1 box2 peptide, triplicate) is “no IC50 curve could be fitted”.

With `O=C(O)c1ccc(NC(=O)c2c(-c3c(Cl)cccc3C(F)(F)F)noc2-c2ccccc2)cc1` [compound 8, 4-{3-[2-Chloro-6-(trifluoromethyl)phenyl]-5-phenyl-1,2-oxazole-4-amido}benzoic Acid], the “chemical stability (% remain)” value in “Chemical stability” is 95.4 % remain. Moreover, in series [1], the “microsomal stability phase 2 (% remain)” value stood at 100 % remain. Besides, the “plasma protein binding (% bound)” value in “Plasma protein binding” amounted to 97.8 % bound. The “plasma stability (% remain)” value in “Plasma stability” came out at 99.9 % remain. Moreover, the “PAMPA (% flux)” value in “PAMPA” turned out to be 60.1 % flux.

With `C[C@H]1O[C@@H](O[C@H]2[C@@H](O)C[C@H](O[C@H]3[C@@H](O)C[C@H](O[C@H]4CC[C@@]5(C)[C@H](CC[C@@H]6[C@@H]5C[C@@H](O)[C@]5(C)[C@@H](C7=CC(=O)OC7)CC[C@]65O)C4)O[C@@H]3C)O[C@@H]2C)C[C@H](O)[C@@H]1O` [compound 1, digoxin, reference compound], the Hill slope entry is reported as “–0.76 ± 0.05” on His6-RORγt-LBD [3] (0 μM cholesterol), “–0.77 ± 0.03” on His6-RORγt-LBD [3] (0.25 μM cholesterol) and “–1.01 ± 0.06” at His6-RORγt-LBD [3] (1.0 μM cholesterol).

`O=C(O)c1ccc(NCc2c(-c3c(Cl)cccc3C(F)(F)F)noc2-c2ccco2)cc1` [compound 23, 4-[({3-[2-Chloro-6-(trifluoromethyl)phenyl]-5-(furan-2-yl)-1,2-oxazol-4-yl}methyl)amino]benzoic Acid]: the “chemical stability (% remain)” value in “Chemical stability” amounted to 100 % remain. In series [1], the “microsomal stability phase 2 (% remain)” value is recorded as 92.8 % remain. Also, the “plasma protein binding (% bound)” value in the series “Plasma protein binding” came out at 100 % bound. For the same molecule, the “plasma stability (% remain)” value in “Plasma stability” turned out to be 86.5 % remain. Also, the “PAMPA (% flux)” value in the series “PAMPA” stood at 50.4 % flux. Besides, the “improvement in potency compared to phenyl 19” value at His6-RORγt-LBD [2] worked out at 9 fold.

`O=C(O)c1ccc(NCc2c(-c3c(Cl)cccc3C(F)(F)F)noc2-c2cc[nH]c2)cc1` [compound 25, 4-[({3-[2-Chloro-6-(trifluoromethyl)phenyl]-5-(1H-pyrrol-3-yl)-1,2-oxazol-4-yl}methyl)amino]benzoic Acid]: the “chemical stability (% remain)” value in the series “Chemical stability” stood at 95.3 % remain. The “microsomal stability phase 2 (% remain)” value in series [1] amounted to 69.8 % remain. The “plasma protein binding (% bound)” value in “Plasma protein binding” was 99.9 % bound. The “plasma stability (% remain)” value in the series “Plasma stability” is given as 85.9 % remain. Further, the Hill slope entry is recorded as “–0.77 ± 0.04” on His6-RORγt-LBD [3] (0 μM cholesterol), “–0.86 ± 0.03” on His6-RORγt-LBD [3] (0.25 μM cholesterol) and “–1.01 ± 0.03” at His6-RORγt-LBD [3] (1.0 μM cholesterol). Moreover, in the series “PAMPA”, the “PAMPA (% flux)” value was 33.6 % flux. Besides, the “improvement in potency compared to phenyl 19” value at His6-RORγt-LBD [2] is given as 36 fold.

B1: N-terminal biotinylated SRC-1 box2 peptide (peptide)
peptide: Biotin-PSSHSSLTARHKILHRLLQEGSPSD-NH2
SMILES: CC[C@H](C)[C@H](NC(=O)[C@H](CCCCN)NC(=O)[C@H](Cc1c[nH]cn1)NC(=O)[C@H](CCCNC(=N)N)NC(=O)[C@H](C)NC(=O)[C@@H](NC(=O)[C@H](CC(C)C)NC(=O)[C@H](CO)NC(=O)[C@H](CO)NC(=O)[C@H](Cc1c[nH]cn1)NC(=O)[C@H](CO)NC(=O)[C@H](CO)NC(=O)[C@@H]1CCCN1C(=O)CCCC[C@@H]1SC[C@@H]2NC(=O)N[C@@H]21)[C@@H](C)O)C(=O)N[C@@H](CC(C)C)C(=O)N[C@@H](Cc1c[nH]cn1)C(=O)N[C@@H](CCCNC(=N)N)C(=O)N[C@@H](CC(C)C)C(=O)N[C@@H](CC(C)C)C(=O)N[C@@H](CCC(N)=O)C(=O)N[C@@H](CCC(=O)O)C(=O)NCC(=O)N[C@@H](CO)C(=O)N1CCC[C@H]1C(=O)N[C@@H](CO)C(=O)N[C@@H](CC(=O)O)C(N)=O
For the molecule B1, the binding result in series [4] was “binds”.

These data come from PMC6956242 (Journal of Medicinal Chemistry, 2019).
